In assay [1] the test system is ULK kinase substrate ATG13 (pS318-ATG13) in T24 cells. The assay can be described thus: pATG13 levels of mutant HRas T24 cells after treatment with ULK inhibitors in combination with trametinib (ELISA). The class given is cell-based, human. The conditions noted are these: in combination with trametinib 250 nM. As to the method: pATG13 Levels of Mutant HRas T24 Cells after Treatment with ULK Inhibitors in Combination with Trametinib
T24 human urinary bladder cancer cells (25000 cells/well) were added to a 96-well tissue-culture treated plate in 100 μL of pre-warmed DMEM medium supplemented with 10% characterized fetal bovine serum (Invitrogen, Carlsbad, CA), 100 units/mL penicillin G, and 100 μg/mL streptomycin and allowed to grow overnight at 37° C., 5% CO2, and 95% humidity. The following day, 100 μL of media containing trametinib or DMSO as a control was added to wells. The final concentration of trametinib in wells was 250 nM. A dose response of a test compound (0.5 μL per well) was added. DMSO (0.5 μL) was added to control wells. The plate was briefly shaken to mix wells and then incubated at 37° C. overnight. The next day, the media was aspirated and cells were washed with Dulbecco's Phosphate Buffered Saline (Gibco). Cells were lysed using MPER lysis buffer (Pierce, Rockford, IL) containing Halt Phosphatase and Protease Inhibitors (Pierce, Rockford, IL) and Phosphatase inhibitor cocktail 2 (Sigma, St. Louis, MO) at 4° C. for 10 min with shaking.
(§1) Cellular levels of phospho-Serine 318 ATG13 (pATG13) were measured via an ELISA method. Total ATG13 Antibody (Cell Signaling Cat #13273) was used to coat the wells. The plate was incubated at 4° C. overnight and washed with ELISA wash buffer (Biolegend Cat #421601). The wells were then blocked with assay diluent (Biolegend Cat #421203) for 1 h at rt. Plate wells were washed with ELISA wash buffer. Cell lysate was added to wells and incubated at rt for 2 h. Plate wells were washed with ELISA wash buffer. Biotinylated pS318-ATG13 antibody (Rockland Immunochemicals Cat #600-401-C49) was diluted in assay diluent and added to each well and incubated at rt for 1 h. Plate wells were washed with ELISA wash buffer. Streptavidin linked to horseradish peroxidase (Thermo Fisher Cat #21140) was diluted in assay diluent and added to each well and incubated at rt for 1 h. Plate wells were washed with ELISA wash buffer. High sensitivity TMB substrate (Biolegend Cat #421101) was added to each well and incubated at rt for 20 min. The reaction was stopped with 2.0N sulfuric acid. The plate was analyzed at on a plate reader measuring absorbance at 450 nm and 540 nm (background). Signal was calculated by first subtracting the background absorbance at 540 nm from the absorbance at 450 nm for each well. Next, the background corrected absorbance at 450 nm from blank wells was subtracted from test wells. Data was compared to control wells to determine % ATG13 phosphorylation. GraphPad Prism was used to calculate IC50 values.
In general terms: In an ELISA, binding on a coated surface is turned into a signal by an enzyme label.

The subject of assay [2] is ULK kinase substrate ATG13 (pS318-ATG13) in HCT-116 cells. The experiment in a line: pATG13 levels of mutant KRas HCT-116 cells after treatment with ULK inhibitors in combination with trametinib (ELISA). The class given is cell-based, human. How it is done:
pATG13 Levels of Mutant KRas HCT-116 Cells after Treatment with ULK Inhibitors in Combination with Trametinib
HCT-116 human colon cancer cells (10000 cells/well) were added to a 384-well tissue-culture treated plate in 50 μL of pre-warmed DMEM medium supplemented with 10% characterized fetal bovine serum (Invitrogen, Carlsbad, CA), 100 units/mL penicillin G, and 100 μg/mL streptomycin and allowed to grow overnight at 37° C., 5% CO2, and 95% humidity. The following day, 10 μL of media containing trametinib or DMSO as a control was added to wells. The final concentration of trametinib in wells was 250 nM. A dose response of a test compound (0.6 μL per well) was added. DMSO (0.6 μL) was added to control wells. The plate was briefly shaken to mix wells and then incubated at 37° C. overnight. The next day, the media was aspirated and cells were washed with Dulbecco's Phosphate Buffered Saline (Gibco). Cells were lysed using MPER lysis buffer (Pierce, Rockford, IL) containing Halt Phosphatase and Protease Inhibitors (Pierce, Rockford, IL) and Phosphatase inhibitor cocktail 2 (Sigma, St. Louis, MO) at 4° C. for 10 minutes with shaking.
as §1, with “minutes.” for “min.”

The IC50 is the concentration needed to halve the response being measured. As to `CC/C(Nc1cnn(C2CCN(C(C)C)CC2)c1)=C1/C(=O)Nc2ccc(C(=O)NC[C@H]3CCCO3)cc21` [Example 1, (R,Z)-3-(1-((1-(1-isopropylpiperidin-4-yl)-1H-pyrazol-4-yl)amino)propylidene)-2-oxo-N-((tetrahydrofuran-2-yl)methyl)indoline-5-carboxamide], the half-inhibitory concentration (IC50) in assay [1] and in assay [2] was no more than 100 nM in each case. As for `CC/C(Nc1ccc(N2CCN(C)CC2)cn1)=C1/C(=O)Nc2ccc(C(=O)NCC(F)(F)F)cc21` [Example 75], in assay [2], the half-inhibitory concentration (IC50) was no more than 100 nM. Same read-out and setting: the same measure for `CC/C(Nc1cnn(C)c1)=C1/C(=O)Nc2ccc(C(=O)NCC(F)(F)F)cc21` [Example 77]: no more than 100 nM; for `CC/C(Nc1cnn(C2CCN(C(C)C)CC2)c1)=C1/C(=O)Nc2ccc(C(=O)NCCOC(F)(F)F)cc21` [Example 82]: greater than 600 nM. The same measure, in the same setting: the value for `CC/C(Nc1cnn(C2CN(C)C2)c1)=C1/C(=O)Nc2ccc(C(=O)NCC(F)(F)F)cc21` [Example 86] was no more than 100 nM.

The values are drawn from patent US20240150368A1, “ULK INHIBITORS AND METHODS OF USE THEREOF” (Deciphera Pharmaceuticals, LLC, priority 2022, published 2024).
